Structures can show the parent of a compound that is named as a salt.
Assay: Solubility of Cefmenoxime hydrochloride in organic solvents
Format: physicochemical
Description: According to the instant invention, after the treatment of step 1), these impurities can be separated from Cefmenoxime hydrochloride.
Treating Cefmenoxime hydrochloride crude directly with a good-poor solvent precipitation method can not achieve the desired purity.

## CO/N=C(\C(=O)N[C@@H]1C(=O)N2C(C(=O)O)=C(CSc3nnnn3C)CS[C@H]12)c1csc(N)n1 [Cefmenoxime hydrochloride, (6R,7R)-7-[(Z)-2-(2-amino-thiazol-4-yl)-2-methoxyiminoacetylamino]-3-[[(1-methyl-1H-tetrazol-5-yl)-sulfanyl]methyl]-8-oxo-5-thia-1-azabicyclo[4.2.0]oct-2-ene-2-carboxylic acid hydrochloride (2:1)]
Solvent acetone
  solubility in acetone: almost insoluble
Solvent ethanol
  solubility in ethanol: almost insoluble
Solvent ethyl acetate
  solubility in ethyl acetate: almost insoluble
Solvent formamide
  solubility in formamide: soluble
Solvent methanol
  solubility in methanol: slightly soluble

From patent US20140121370A1, “NOVEL METHOD FOR PREPARING CEFMENOXIME HYDROCHLORIDE COMPOUND” (Hainan Lingkang Pharmaceutical Co., Ltd., priority 2011, published 2014)
